{"source": "patent US12138256B2", "about": "“Treatment of cardiopulmonary disorders” (Bayer Aktiengesellschaft, priority 2021, dated 2024)", "key": {"[1]": {"test_system": "guinea pig trachea pre-contracted with carbachol", "experiment": "Bronchorelaxation in vitro: carbachol pre-contracted guinea pig trachea rings, wash-out recovery factor (C-3.1)", "settings": "1 μmol/l", "procedure": "Male Dunkin Hartley guinea pig were euthanized using carbon dioxide. The primary bronchus was removed and placed in ice-cold Krebs-Henseleit buffer of following composition (in mmol/l): […] For recording of isometric tension, the bronchial rings were mounted between two hooks. One hook was connected to a force transducer the other was moveable and allowed a precise adjustment of resting tension at 1.5 g. During the equilibration period of 60 min the tissue was washed every 20 min with buffer. […] After 30 min, a cumulative dose response curve of the test compound was constructed. Every concentration was incubated till the response was stable. […] The relaxation was expressed as percentage tension. […] The recovery factor was calculated as a ratio of bronchodilation 1 h after compound application and bronchodilation 1 h after removal (wash out) of test compound. […] Relaxation via Cinaciguat (comparative example 1) and Riociguat (comparative example 2) reached a steady state within the 1 h incubation time. […] In contrast, relaxation induced by comparative example 11 was further progressing during the wash out period (recovery factor 1.41)."}, "[2]": {"experiment": "Thermal stability of the solid (90° C., 7 days, HPLC peak areas)", "assay_type": "physicochemical", "procedure": "0.3 mg of the test compound, e.g. comparative example 11 were solved in 0.1 ml dimethylsulfoxide and 0.4 ml acetonitrile. Then 1.0 ml water was added. For complete dissolution the HPLC vial was shaken and sonicated. This solution was immediately analyzed by HPLC (reference at t0). 0.3 mg of the test compound was weighed into another HPLC vial. The vial was capped and stored for 7 days in a heating block at 90° C.\nAfter this time the vial was decapped and 0.1 ml dimethylsulfoxide and 0.4 ml acetonitrile were added to the stressed compound. Then 1.0 ml water was added. For complete dissolution the HPLC vial was shaken and sonicated. The sample was analyzed by HPLC (sample after 1 week). The peak areas in percentage are used for quantification."}, "PAH minipig model": {"test_system": "PAH minipig model", "experiment": "Deposited lung dose (absorbing filters) in PAH minipig model and prediction of human dose and duration of effect", "assay_type": "in vivo, Göttingen minipig", "procedure": "The anesthetized thromboxane A2 challenged PAH-minipig model (see experimental part C-2.1) is considered to be the most relevant and sensitive model for the prediction of the human minimal effective and effective doses (MED, ED). To determine effective LDs, experiments in minipigs were repeated with the difference that absorbing filters were attached at the end of the tubes to determine the deposited lung dose. […] Assuming a minimal effective ND of 3 μg/kg (5% reduction in PAP) the minimal effective deposited LD is considered as 0.15 μg/kg (see FIG. 1).\nThe resulting lung deposited doses in the minipig of 0.15, 0.5, 1.5 and 5 μg/kg were multiplied by 60 kg to achieve the lung dose in humans. Thus, the FPD reflecting the PAP reduction for a 60 kg human are calculated to be 9, 30, 90 and 300 μg.\nThus, via a direct up-scaling from minipig, the predictive MED (5% PAP reduction) for a human based on a 60 kg body weight is calculated to be 9 μg LDD, not considering protein binding within the respiratory tract. As a surrogate for unbound concentrations, which are the likely active concentrations in the lung, we considered respective differences in fractions unbound in plasma of minipig and human. This consideration results in a minimum effective lung dose (LD) for a 60 kg participant of 41 μg LDD for the assumed 5% reduction on PAP. Consequently, the predictive minimal human effective dose is in the range from 9 μg LDD to 41 μg LDD based on a 60 kg body weight (see FIG. 2).\nThis translation was also conducted for effective doses (effective PAP reduction>five up to 35 percent for longer time periods up to the complete observation period of 4 hrs) based on the relative lung deposited doses in minipigs as listed in Table 2.\nFor DPI products, it is assumed that the fine particle dose (FPD) is basically equivalent to the human lung deposited dose.\nWith respect to a prediction of the duration of action for human studies comparative example 11 was compared in the PAH minipig model after inhaled application to Ventavis® (=Iloprost, 10 μg/kg nominal dose), which we used as a clinical reference. […] Therefore the duration of action is more than 6 times longer compared to Ventavis in this preclinical animal model.\nIn order to generate a human dose estimate, experiments in the PAH minipig model for comparative example 11 were repeated with the difference that absorbing filters were attached at the end of the tubes to determine the deposited lung dose. […] The arithmetic mean of the aerosol fraction deposited on the filters is 5% based on all results of the filter experiments, resulting in relative lung deposited doses of about 0.15 μg/kg (3 μg/kg nominal dose), 0.5 μg/kg (10 μg/kg nominal dose), 1.5 μg/kg (30 μg/kg nominal dose) and 5 μg/kg (100 μg/kg nominal dose). Assuming a minimal effective nominal dose of 3 μg/kg for a 5% reduction in PAP and a mean nebulization efficiency of 5%, the minimal effective deposited lung dose is considered as 0.15 μg/kg based on the PAH minipig model. Therefore, for a human patient of 60 kg body weight a minimal effective lung deposited dose of 9-41 μg, depending on whether or not an effect of different protein binding (see table 2.1.5) is postulated. Considering 100 μg/kg as effective dose in the minipig model, 300-1370 μg lung deposited dose is postulated as effective dose, again depending on the consideration of different interspecies protein binding."}, "[3]": {"test_system": "unilateral broncho-occlusion in anesthetized minipigs", "experiment": "Unilateral broncho-occlusion minipig model: arterial oxygenation as proxy of VQ-mismatch, intrapulmonary selectivity (C-2.3)", "assay_type": "in vivo", "settings": "for % decrease delta PAP (maximal hypoxic PAP) / % increase AUCSaO2 (unwanted desaturation effect): mean, n = 4", "procedure": "These effects were more pronounced 90 min after inhalation of comparative example 11 (second intervention cycles (inhal)). […] Thus, the mean % changes in maximal hypoxic PAP and associated % changes in area under the oxygen saturation curve [AUCSaO2] were compared (see FIG. 65) within the respective group. As reference cycles in each group, we used cycle 3 for the inhaled applications as well as cycle 4 for the i.v. applications."}, "[4]": {"settings": "minipig 0.15 μg/kg lung deposited (3 μg/kg nominal dose)"}, "[5]": {"settings": "minipig 0.50 μg/kg lung deposited (10 μg/kg nominal dose)"}, "[6]": {"settings": "minipig 1.5 μg/kg lung deposited (30 μg/kg nominal dose)"}, "[7]": {"settings": "minipig 5.0 μg/kg lung deposited (100 μg/kg nominal dose)"}}}
{"smiles": "O=C(O)c1ccc(CCN(CCc2ccccc2OCc2ccc(-c3ccc(C(F)(F)F)cc3)cc2Cl)[C@H]2CCCc3nc(C(=O)O)ccc32)cc1", "note": "[comparative example 11, (5S)-5-{[2-(4-carboxyphenyl)ethyl][2-(2-{[3-chloro-4′-(trifluoromethyl)[biphenyl]-4-yl]methoxy}phenyl)ethyl]amino}-5,6,7,8-tetrahydroquinoline-2-carboxylic acid]", "values": [{"measurement": "Relaxation (%) (timepoint at 70 min) Mean", "setting": "[1]", "value": 72.2, "unit": "%"}, {"measurement": "Relaxation (%) (timepoint at 130 min) Mean", "setting": "[1]", "value": 51.3, "unit": "%"}, {"measurement": "thermal stability", "setting": "[2]", "value": "stable"}, {"measurement": "minimal effective deposited lung dose", "setting": "PAH minipig model; 5% reduction in PAP, mean nebulization efficiency 5%, minipig", "value": 0.15, "unit": "µg/kg"}, {"measurement": "minimal effective nominal dose (MED)", "setting": "PAH minipig model; 5% reduction in PAP, nebulized liquid solution, minipig", "value": 3, "unit": "µg/kg"}, {"measurement": "predictive minimal human effective lung deposited dose", "setting": "PAH minipig model; 60 kg body weight, 5% PAP reduction, without/with protein binding difference", "value": "9 to 41", "unit": "µg"}, {"measurement": "effective lung deposited doses in humans expected from minipig data", "setting": "PAH minipig model; 60 kg human", "value": "9 to 1370", "unit": "µg"}, {"measurement": "supposed duration of action in humans", "setting": "PAH minipig model; assumption that duration is comparable between PAH minipig model and humans", "value": "at least 6 hours"}, {"measurement": "lung deposited dose postulated as effective dose in humans", "setting": "PAH minipig model; considering 100 μg/kg as effective dose in the minipig model, 60 kg", "value": "300 to 1370", "unit": "µg"}, {"measurement": "Total lung deposited dose in a 60 kg human, interspecies difference in protein binding considered", "setting": "PAH minipig model; [4]", "value": 41, "unit": "µg"}, {"measurement": "Total lung deposited dose in a 60 kg human, interspecies difference in protein binding not considered", "setting": "PAH minipig model; [4]", "value": 9, "unit": "µg"}, {"measurement": "Total lung deposited dose in a 60 kg human, interspecies difference in protein binding considered", "setting": "PAH minipig model; [5]", "value": 137, "unit": "µg"}, {"measurement": "Total lung deposited dose in a 60 kg human, interspecies difference in protein binding not considered", "setting": "PAH minipig model; [5]", "value": 30, "unit": "µg"}, {"measurement": "Total lung deposited dose in a 60 kg human, interspecies difference in protein binding considered", "setting": "PAH minipig model; [6]", "value": 410, "unit": "µg"}, {"measurement": "Total lung deposited dose in a 60 kg human, interspecies difference in protein binding not considered", "setting": "PAH minipig model; [6]", "value": 90, "unit": "µg"}, {"measurement": "Total lung deposited dose in a 60 kg human, interspecies difference in protein binding considered", "setting": "PAH minipig model; [7]", "value": 1370, "unit": "µg"}, {"measurement": "Total lung deposited dose in a 60 kg human, interspecies difference in protein binding not considered", "setting": "PAH minipig model; [7]", "value": 300, "unit": "µg"}, {"measurement": "highest effective dose in the minipig model without systemic side effects (BP reduction)", "setting": "PAH minipig model; nominal dose, inhaled", "value": 100, "unit": "µg/kg"}, {"measurement": "time of maximal effects after inhalation", "setting": "[3]; 100 μg/kg nominal dose inhaled", "value": 90, "unit": "min"}, {"measurement": "% decrease delta PAP (maximal hypoxic PAP)", "setting": "[3]; Inhalation I, Cycle 5", "value": 1.8, "unit": "%"}, {"measurement": "% increase AUCSaO2 (unwanted desaturation effect)", "setting": "[3]; Inhalation I, Cycle 5", "value": "−18.6", "unit": "%"}, {"measurement": "% decrease delta PAP (maximal hypoxic PAP)", "setting": "[3]; Inhalation II, Cycle 6", "value": "−19.6", "unit": "%"}, {"measurement": "% increase AUCSaO2 (unwanted desaturation effect)", "setting": "[3]; Inhalation II, Cycle 6", "value": "−39.4", "unit": "%"}, {"measurement": "hypoxia-induced increases in mean pulmonary artery pressure (mPAP)", "setting": "[3]; after inhaled (cycle 6) as well as i.v. application (cycles 7 and 8)", "value": "effectively reduced"}, {"measurement": "BP", "setting": "[3]; i.v. application, 30 μg/kg and 100 μg/kg", "value": "expected drop in BP"}, {"measurement": "desaturation area (AUCSaO2)", "setting": "[3]; inhaled application, 100 μg/kg nominal dose", "value": "did not increase desaturation area"}, {"measurement": "% decrease delta PAP (maximal hypoxic PAP)", "setting": "[3]; iv Bolus 30 μg", "value": "−23.8", "unit": "%"}, {"measurement": "% increase AUCSaO2 (unwanted desaturation effect)", "setting": "[3]; iv Bolus 30 μg", "value": 48.1, "unit": "%"}, {"measurement": "% decrease delta PAP (maximal hypoxic PAP)", "setting": "[3]; iv Bolus 100 μg", "value": "−14.3", "unit": "%"}, {"measurement": "% increase AUCSaO2 (unwanted desaturation effect)", "setting": "[3]; iv Bolus 100 μg", "value": 282.8, "unit": "%"}, {"measurement": "desaturation area (AUCSaO2)", "setting": "[3]; systemic (i.v.) application, 30 and 100 μg/kg", "value": "dose dependent increase in desaturation area"}]}
